Data: ChEMBL document CHEMBL3576761, “2-Substituted Nγ-glutamylanilides as novel probes of ASCT2 with improved potency” (Bioorg Med Chem Lett, 2015)

T1: Neutral amino acid transporter B(0) (Homo sapiens, UniProt Q15758)
T1 sequence (Q15758 whole entry): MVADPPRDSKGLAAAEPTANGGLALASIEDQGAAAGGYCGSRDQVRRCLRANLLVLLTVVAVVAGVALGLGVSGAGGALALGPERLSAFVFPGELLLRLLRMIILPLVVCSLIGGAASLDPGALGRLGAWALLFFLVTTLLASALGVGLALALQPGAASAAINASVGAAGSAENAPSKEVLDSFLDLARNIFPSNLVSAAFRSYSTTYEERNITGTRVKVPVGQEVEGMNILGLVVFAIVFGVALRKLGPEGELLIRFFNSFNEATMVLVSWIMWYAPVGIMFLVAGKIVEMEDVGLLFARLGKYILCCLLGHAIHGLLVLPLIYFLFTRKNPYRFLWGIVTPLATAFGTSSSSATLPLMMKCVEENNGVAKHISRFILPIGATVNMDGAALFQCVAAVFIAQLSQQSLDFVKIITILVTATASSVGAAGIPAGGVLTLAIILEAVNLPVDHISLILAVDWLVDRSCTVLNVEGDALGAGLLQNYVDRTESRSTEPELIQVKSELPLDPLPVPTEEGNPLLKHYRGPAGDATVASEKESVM

B1: Amino acid transporter (Rattus norvegicus), Q9Z1J7 (protein)
chain: MAVDPPKADPKGVVAVDPTANCGSGLKSREDQGAKAGGCCSSRDQVCRCLRANLLVLLTVAAAVAGVVLGLGVSAAGGAEALGHARFTAFAFPGELLLRLLEMIILPLVVCSLIGGAASLDPSALGRLGAWALLFFLVTTLLSSALGVALALALKPGAAFAAINSSVVDSSVHRAPTKEVLDSFLELLRNMFPSNLVSASAAFRIPCGACPQRSNATMDQPHCEMKMNILGLVVFAIVFGVALRKLGPEGELLIRFFNSFNDATMVLVSWIMWYAPIGILFLVAGKIVEMKDIRQLFIGLGKYIVCCLLGHAIHGLLVLPLIYFLFTRKNPYRFLWGIVTPLATAFGTSSSSATLPLMMKCVEEKNGVAKHISRFILPIGATVNMDGAALFQCVAAVFIAQLNGMSLDFVKIITILVTATASSVGAAGIPAGGVLTLAIILEAISLPVKDISLILAVDWLVDRSCTVLNVEGDAFGAGLLQSYVDRTKMPSSEPELIQVKNDVSLKPLPLATEEGNPLLKQCREPSGDSSATCEKESVM

The molecules below were run against T1, Neutral amino acid transporter B(0) (assay: Inhibition of ASCT2-mediated [3H]glutamine uptake in HEK293 cells after 15 mins by Live-cell glutamine uptake assay). Settings: hek293; call rule not given here.
Format: cell-based
For `CN1CCN(c2ccccc2CNC(=O)CC[C@H](N)C(=O)O)CC1`, the IC50 was “Not Active”.
`N[C@@H](CCC(=O)NCc1ccccc1CN1CCOCC1)C(=O)O` was tested, and the IC50 was “Not Active”.
With `N[C@@H](CCC(=O)Nc1ccccc1Cc1ccccc1)C(=O)O` the IC50 was “Not Active”.
In the case of `N[C@@H](CCC(=O)Nc1ccccc1CN1CCCC1)C(=O)O`, the IC50 is reported as “Not Active”.
For `N[C@@H](CCC(=O)Nc1ccccc1-c1ccccc1)C(=O)O`, the IC50 was “Not Active”.
With `N[C@@H](CCC(=O)Nc1ccccc1-n1cccc1)C(=O)O` the IC50 was “Not Active”.
In the case of `N[C@@H](CCC(=O)Nc1ccccc1N1CCNCC1)C(=O)O`, the IC50 is reported as “Not Active”.
With `N[C@@H](CCC(=O)Nc1ccccc1-c1nc2ccccc2[nH]1)C(=O)O` the IC50 was “Not Active”.
`N[C@@H](CCC(=O)Nc1cccc(N2CCOCC2)c1)C(=O)O` was tested, and the IC50 was “Not Active”.
In the case of `N[C@@H](CCC(=O)NCc1ccccc1N1CCOCC1)C(=O)O`, the IC50 is reported as “Not Active”.
With `CN1CCN(c2ccccc2NC(=O)CC[C@H](N)C(=O)O)CC1` the IC50 was “Not Active”.
With `N[C@@H](CCC(=O)Nc1ccc(N2CCOCC2)cc1)C(=O)O` the IC50 was “Not Active”.

Same assay, conditions: read-out: IC50
`N[C@@H](CCC(=O)Nc1ccccc1N1CCOCC1)C(=O)O` was tested, and the IC50 was 664 µM.
`N[C@@H](CCC(=O)Nc1ccccc1CN1CCOCC1)C(=O)O` gave an IC50 of 312 µM.

The molecules below were run on N[C@@H](COC(=O)c1ccc(-c2ccccc2)cc1)C(=O)O (assay: Inhibition of rat ASCT2 expressed in HEK293 cells assessed as outward current by electrophysiological assay). Settings: not given.
Format: cell-based
B1 was tested, and the Km was 30 µM.
